One test deals with NCI-H69 cells. The experiment in a line: In vitro cell inhibition assay - NCI-H69 cell proliferation (CellTiter-Glo). The test is classed as cell-based. In outline:
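Over 7 days at 37° C. and 5% CO2, cells grew in RPMI-640 supplemented with 20% FBS in the presence of eight 5-fold-spaced compound concentrations.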
On the technique in general: Cellular ATP, detected with luciferase, serves as a proxy for viable cell number.

Another test has as its system DU145 cells. The experiment in a line: In vitro cell inhibition assay - DU145 cell proliferation (CellTiter-Glo). The test is classed as cell-based. The method, then: 5. In Vitro Cell Inhibition Assay—DU145 Cell Proliferation
The inhibitory effect of the compounds on cell proliferation was assessed by detecting the number of viable cells using the CellTiter-Glo® reagent. DU145 cells in the logarithmic growth phase were collected and inoculated into transparent bottom 96-well plates at a density 1×10^3 cells per well with 100 μL medium, and incubated at 37° C., 5% CO2 overnight. The compounds were sequentially diluted in a 5-fold concentration gradient with DMSO to obtain 8 different concentrations. These were then diluted with RPMI-640 (containing 10% FBS) cell culture medium to obtain the compound working solution (2×), which was added to the cell supernatant at 100 μL per well. The incubation continued for 6 days at 37° C., 5% CO2. The plate was then removed and equilibrated at room temperature (25° C.) along with the CellTiter-Glo® mixing reagent for 10-30 minutes. After centrifugation, 120 μL of the culture medium was carefully aspirated from each well, and 60 μL of CellTiter-Glo® reagent was added. The cells were thoroughly mixed with the CellTiter-Glo® mixing reagent using a microplate shaker for 2 min. and then incubated at room temperature for 10 min. The 96-well plate was subsequently placed on a multifunctional microplate reader to record the Luminescence values (RLU).
The inhibition rate was calculated using the following formula: […]
Note: ‘Negative’ refers to the group without inhibitors; ‘Blank’ refers to the group without cells.
The IC50 value was determined by fitting the inhibition rate by GraphPad Prism software.

The next test addresses pan-HDAC. Nature of the test: In vitro enzyme inhibition assay - HDAC (HDAC-Glo I/II), pan-HDAC. The test is classed as biochemical. Put shortly: (§1)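 Eight compound concentrations (5-fold steps from a 1 mM DMSO stock) tested against pan-HDAC, HDAC1 and HDAC8 with HDAC-Glo I/II reagents, luminescence read-out. Percent inhibition normalized to no-inhibitor and no-enzyme wells; IC50 derived by four-parameter logistic fit.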

The target in the next test is LSD1 (Homo sapiens (Human), UniProt O60341). The experiment in a line: In vitro enzyme inhibition assay - LSD1 (HTRF). The format is biochemical.
In a further test the test system is NCI-H1417 cells. Nature of the test: In vitro cell inhibition assay - H1417 cell proliferation (CellTiter-Glo). The format is cell-based. Put shortly: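 Cells exposed to 8 compound concentrations (5-fold dilutions) in BEGM with 10% FBS for 7 days at 37° C., 5% CO2. Viable cells measured by CellTiter-Glo luminescence; inhibition versus no-inhibitor and no-cell controls, IC50 fitted.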

The target of another test is HDAC8 (Homo sapiens (Human), UniProt Q9BY41). The experiment in a line: In vitro enzyme inhibition assay - HDAC (HDAC-Glo I/II), HDAC8. As to conditions: read-out: HDAC IC50 (nM) HDAC 8. The test is classed as biochemical. Put shortly: as §1
[1] abbreviates: Homo sapiens, NCI-H69, H69 small cell lung cancer cell proliferation.
Setting [2] is: Homo sapiens, DU-145, Du145 prostate cancer cell proliferation.
The mark [3] stands for this setting: Homo sapiens, NCI-H1417, H1417 small cell lung cancer cell proliferation.
Where [4] appears, read: H69 small cell lung cancer cell proliferation.
Setting [5] is: Du145 prostate cancer cell proliferation.
[6] abbreviates: H1417 small cell lung cancer cell proliferation.

Where a name gives a salt, the structure may show the parent alone.

As a reminder, the IC50 is the concentration needed to halve the response being measured.

HDAC8, sequence (Q9BY41 whole entry): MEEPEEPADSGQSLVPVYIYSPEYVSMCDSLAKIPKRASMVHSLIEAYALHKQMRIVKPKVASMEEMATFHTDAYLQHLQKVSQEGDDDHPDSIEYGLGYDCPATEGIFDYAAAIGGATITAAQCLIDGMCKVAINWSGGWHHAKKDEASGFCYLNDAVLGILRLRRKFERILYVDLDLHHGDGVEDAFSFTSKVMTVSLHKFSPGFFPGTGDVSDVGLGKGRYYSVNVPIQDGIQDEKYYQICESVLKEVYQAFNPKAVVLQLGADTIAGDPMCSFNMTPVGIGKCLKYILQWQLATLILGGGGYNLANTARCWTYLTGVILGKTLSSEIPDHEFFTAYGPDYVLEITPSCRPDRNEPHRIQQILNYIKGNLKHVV

As to `Cc1ccc(-c2c(OCCCCCCC(=O)NO)cc(N3CCC(N)CC3)nc2-c2ccc(C#N)c(F)c2)cc1` [Example 7, 7-[(6-(4-Aminopiperidin-1-yl)-2-(4-cyano-3-fluorophenyl)-3-(4-methylphenyl)pyridin-4-yl)oxy]-N-hydroxyheptanamide-hydrochloride], the IC50 worked out at 2540 nM in the test on NCI-H69 cells (setting [1]); 2960 nM in the test on DU145 cells (setting [2]); 41.3 nM on pan-HDAC; 36 nM at LSD1; 762 nM in the test with NCI-H1417 cells (setting [3]).
The matching figures for `COc1ccc(-c2c(OCCCCCCC(=O)NO)cc(N3CCC(N)CC3)nc2-c2ccc(C#N)c(F)c2)cc1` [Example 8, 7-[(6-(4-Aminopiperidin-1-yl)-2-(4-cyano-3-fluorophenyl)-3-(4-methoxyphenyl)pyridin-4-yl)oxy]-N-hydroxyheptanamide trifluoroacetate]: 2530 nM, 2850 nM, 21.7 nM, 18.6 nM and 501 nM.
As for `N#Cc1ccc(-c2nc(N3CCC(N)CC3)cc(OCCCCCCC(=O)NO)c2-c2ccc(Cl)cc2)cc1F` [Example 11, 7-((6-(4-Aminopiperidin-1-yl)-3-(4-chlorophenyl)-2-(4-cyano-3-fluorophenyl)pyridin-4-yl)oxy)-N-hydroxyheptanamide hydrochloride], the IC50 with NCI-H69 cells (setting [1]) was 2360 nM; in the test with DU145 cells (setting [2]), 2000 nM; against pan-HDAC, 116 nM; with NCI-H1417 cells (setting [3]), above 1000 nM.
`CN(C)c1ncc(-c2c(OCCCCCCC(=O)NO)cc(N3CCC(N)CC3)nc2-c2ccc(C#N)c(F)c2)cn1` [Example 13, 7-((6-(4-Aminopiperidin-1-yl)-2-(4-cyano-3-fluorophenyl)-3-(2-(dimethylamino)pyrimidin-5-yl)pyridin-4-yl)oxy)-N-hydroxyheptanamide formate]: the IC50 with NCI-H69 cells (setting [1]) is 775 nM; in the test with DU145 cells (setting [2]) it was 2770 nM; against pan-HDAC, 3.32 nM; at LSD1 it was 1.95 nM; with NCI-H1417 cells (setting [3]) it was 332 nM.
On the same counts, the results for `COc1ccc(-c2c(OCCCCCCC(=O)NO)cc(N3CCC(N)CC3)nc2-c2ccc(C#N)c(C)c2)cc1O` [Example 16, 7-((6-(4-Aminopiperidin-1-yl)-2-(4-cyano-3-methylphenyl)-3-(3-hydroxy-4-methoxyphenyl)pyridin-4-yl)oxy)-N-hydroxyheptanamide hydrochloride] are 3640 nM, 3700 nM, 4.23 nM, 33.2 nM and above 1000 nM.
Consider `COc1ccc(-c2cnc(N3CCC(NCc4ccc(C(=O)NO)cc4)CC3)c(C#N)c2-c2ccc(C#N)c(F)c2)cc1O` [Example 41, 4-(((1-(3-Cyano-4-(4-cyano-3-fluorophenyl)-5-(3-hydroxy-4-methoxyphenyl)pyridin-2-yl)piperidin-4-yl)amino)methyl)-N-hydroxybenzamide hydrochloride], for which the half-maximal inhibitory concentration (IC50) with NCI-H69 cells (setting [1]) stood at 1680 nM; with DU145 cells (setting [2]), 5060 nM; on LSD1 it was 0.13 nM; with NCI-H1417 cells (setting [3]), 1.29 nM.
`COc1ccc(-c2c(-c3ccc(C#N)c(F)c3)nc(N3CCC(NCc4ccc(/C=C/C(=O)NO)cc4)CC3)n3ccnc23)cc1O` [Example 70, (E)-3-(4-(((1-(7-(4-Cyano-3-fluorophenyl)-8-(3-hydroxy-4-methoxyphenyl)imidazo[1,2-c]pyrimidin-5-yl)piperidin-4-yl)amino)methyl)phenyl)-N-hydroxyacrylamide formate]: the concentration for half-maximal inhibition (IC50) with NCI-H69 cells (setting [1]) was 214 nM; in the test with DU145 cells (setting [2]), 262 nM; against pan-HDAC, 76.6 nM; against LSD1, 1.18 nM; at HDAC8, 26.5 nM; in the test on NCI-H1417 cells (setting [3]) it was 1.44 nM.
Turning to `COc1ccc(-c2cnc(N3CCC(NCc4ccc(/C=C/C(=O)NO)cc4)CC3)nc2-c2ccc(C#N)c(F)c2)cc1O` [Example 71, (E)-3-(4-(((1-(4-(4-cyano-3-fluorophenyl)-5-(3-hydroxy-4-methoxyphenyl)pyrimidin-2-yl)piperidin-4-yl)amino)methyl)-N-hydroxyacrylamide formate], the IC50 in the test on NCI-H69 cells (setting [4]) is 99 nM; in the test with DU145 cells (setting [5]) it was 431 nM; against pan-HDAC, 51.8 nM; on LSD1 it was 4.61 nM; at HDAC8 it was 125 nM; with NCI-H1417 cells (setting [6]) it was 42.3 nM.
On to `COc1ccc(-c2ccc(C(=O)N3CC[C@H](NCc4ccc(/C=C/C(=O)NO)cc4)C3)cc2-c2ccc(C#N)c(F)c2)cc1O` [Example 72, (S,E)-3-(4-(((1-(4″-cyano-3″-fluoro-3-hydroxy-4-methoxy-[1,1′:2′,1″-terphenyl]-4′-carbonylpyrrolidin-3-yl)amino)methyl)phenyl)-N-hydroxyacrylamide formate], for which the IC50 with NCI-H69 cells (setting [4]) came to 970 nM; with DU145 cells (setting [5]), 2750 nM; at pan-HDAC, 110 nM; at LSD1 it was 8.42 nM; on HDAC8, 160 nM; with NCI-H1417 cells (setting [6]), 166 nM.
Turning to `COc1cc(-c2ccc(C(=O)N3CC[C@H](NCc4ccc(/C=C/C(=O)NO)cc4)C3)cc2-c2ccc(C#N)c(F)c2)ccc1O` [Example 73, (S,E)-3-(4-(((1-(4″-Cyano-3″-fluoro-4-hydroxy-3-methoxy-[1,1]: 2′,1″-terphenyl]-4′-carbonyl)pyrrolidin-3-yl)amino)methyl)phenyl)-N-hydroxyacrylamide formate], the 50% inhibitory concentration (IC50) amounted to 678 nM with NCI-H69 cells (setting [1]); 2230 nM in the test with DU145 cells (setting [2]); 186 nM against pan-HDAC; 21.2 nM at LSD1; 152 nM at HDAC8; 125 nM in the test on NCI-H1417 cells (setting [3]).
With `N#Cc1ccc(-c2c(-c3ccc(F)c(O)c3)cnc(N3CCC(NCc4ccc(/C=C/C(=O)NO)cc4)CC3)c2C#N)cc1F` [Example 97, (E)-3-(4-((1-(3-Cyano-4-(4-cyano-3-fluorophenyl)-5-(4-fluoro-3-hydroxyphenyl)pyridin-2-yl)piperidin-4-yl)amino)methyl) phenyl)-N-hydroxyacrylamide formate], the half-inhibitory concentration (IC50) came to 8.76 nM in the test on NCI-H69 cells (setting [1]), 21 nM in the test with DU145 cells (setting [2]), 1.06 nM at LSD1 and 8.93 nM in the test on NCI-H1417 cells (setting [3]).
In the case of `COc1ccc(-c2cnc(N3CCC(NCc4ccc(/C=C/C(=O)NO)cc4)CC3)c(C#N)c2-c2ccc(C#N)c(F)c2)c(O)c1O` [Example 140, (E)-3-(4-(((1-(3-Cyano-4-(4-cyano-3-fluorophenyl)-5-(2,3-dihydroxy-4-methoxyphenyl)pyridin-2-yl)piperidin-4-yl)amino)methyl)phenyl)-N-hydroxyacrylamide formate], the IC50 with NCI-H69 cells (setting [1]) was found to be 405 nM; with DU145 cells (setting [2]) it was 5190 nM; on LSD1 it was 44.2 nM; in the test with NCI-H1417 cells (setting [3]) it was 220 nM.
On the same counts, the results for `Cn1nnc2cc(-c3cnc(N4CCC(NCc5ccc(/C=C/C(=O)NO)cc5)CC4)c(C#N)c3-c3ccc(C#N)c(F)c3)ccc21` [Example 141, (E)-3-(4-(((1-(3-Cyano-4-(4-cyano-3-fluorophenyl)-5-(1-methyl-1H-benzo[d][1,2,3]triazol-5-yl)pyridin-2-yl)piperidin-4-yl)amino)methyl)phenyl)-N-hydroxyacrylamide formate] are 95.8 nM, 129 nM, 1.72 nM and 31 nM.
As for `COc1ccc(-c2cnc(N3CCC(NCc4ccc(/C=C/C(=O)NO)cc4)CC3)c(C(F)(F)F)c2-c2ccc(C#N)c(F)c2)cc1O` [Example 147, (E)-3-(4-(4-(4-Cyano-3-fluorophenyl)-5-(3-hydroxy-4-methoxyphenyl)-3-(trifluoromethyl)pyridin-2-yl)piperidin-4-yl)amino)methyl) phenyl)-N-hydroxyacrylamide formate], the half-inhibitory concentration (IC50) in the test with NCI-H69 cells (setting [4]) was determined as 440 nM; in the test on DU145 cells (setting [5]), 658 nM; on LSD1 it was 153 nM; in the test on NCI-H1417 cells (setting [6]), 255 nM.
